Experimental data as given in patent publication US7291621B2, “Substituted biaryl amides C5a receptor modulators” (Neurogen Corporation, priority 2002, dated 2007).
pKi: −log10 of the molar value.

target: T1, C5a receptor (Homo sapiens, UniProt P21730); assay: standard assay of C5a receptor mediated calcium mobilization; format: cell-based; settings: Table I; asterisk = tested in C5a receptor mediated calcium mobilization assay; read-out: Ca2+ Mob.
T1 construct: endogenous in cells; host or cells: U937 cells differentiated with 1 mM dibutyryl cAMP
T1 sequence (P21730 1-350): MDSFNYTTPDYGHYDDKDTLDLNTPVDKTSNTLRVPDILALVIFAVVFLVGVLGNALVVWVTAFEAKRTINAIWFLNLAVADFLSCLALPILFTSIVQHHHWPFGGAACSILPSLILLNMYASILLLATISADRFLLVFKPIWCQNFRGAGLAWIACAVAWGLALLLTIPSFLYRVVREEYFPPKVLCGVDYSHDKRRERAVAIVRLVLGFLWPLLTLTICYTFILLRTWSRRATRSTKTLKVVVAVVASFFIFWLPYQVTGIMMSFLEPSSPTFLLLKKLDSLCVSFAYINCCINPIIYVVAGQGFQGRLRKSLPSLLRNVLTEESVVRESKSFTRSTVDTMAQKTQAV
Protocol: U937 cells are grown in differentiation media (1 mM dibutyrl cAMP in RPMI 1640 medium containing 10% fetal bovine serum) for 48 hrs at 37° C. then reseeded onto 96-well plates suitable for use in a FLIPR™ Plate Reader (Molecular Devices Corp., Sunnyvale Calif.). Cells are grown an additional 24 hours (to 70-90% confluence) before the assay. The cells are then washed once with Krebs Ringer solution. FLUO-3 calcium sensitive dye (Molecular Probes, Inc. Eugene, Oreg.) is added to 10 μg/mL and incubated with the cells at room temperature for 1 to 2 hours. The 96 well plates are then washed to remove excess dye. Fluorescence responses, measured by excitation at 480 nm and emission at 530 nm, are monitored upon the addition of human C5a to the cells to a final concentration of 0.01-30.0 nM, using the FLIPR™ device (Molecular Devices).
The calcium mobilization assay described above may be readily adapted for identifying test compounds that have agonist or antagonist activity at the human C5a receptor.
For example, in order to identify antagonist compounds, differentiated U937 cells are washed and incubated with Fluo-3 dye as described above. One hour prior to measuring the fluorescence signal, a subset of the cells is incubated with 1 μM of at least one compound to be tested. The fluorescence response upon the subsequent addition of 0.3 nM (final concentration) human recombinant C5a is monitored using the FLIPR™ plate reader. Antagonist compounds elicit at least a 2-fold decrease in the fluorescence response relative to that measured in the presence of human C5a alone. Preferred antagonist compounds elicit at least a 5-fold, preferably at least a 10-fold, and more preferably at least a 20-fold decrease in the fluorescence response relative to that measured in the presence of human C5a alone.

Compound	pKi
COc1cccc(CN(C(=O)c2cc(OC)ccc2-c2ccsc2)C2Cc3ccccc3C2)c1 [compound 104, N-(indan-2-yl)-5-methoxy-N-(3-methoxybenzyl)-2-thien-3-ylbenzamide]	> 6.00
COc1ccc(-c2ccccc2)c(C(=O)N(Cc2ccccc2C)C2Cc3ccccc3C2)c1 [compound 105, N-(indan-2-yl)-4-methoxy-N-(2-methylbenzyl)-1,1′-biphenyl-2-carboxamide]	> 6.00
COc1ccc(-c2ccccc2)c(C(=O)N(Cc2cccc(C)c2)C2Cc3ccccc3C2)c1 [compound 106, N-(indan-2-yl)-4-methoxy-N-(3-methylbenzyl)-1,1′-biphenyl-2-carboxamide]	> 6.00
COc1ccc(-c2ccccc2)c(C(=O)N(Cc2ccc(C)cc2)C2Cc3ccccc3C2)c1 [compound 107, N-(indan-2-yl)-4-methoxy-N-(4-methylbenzyl)-1,1′-biphenyl-2-carboxamide]	> 6.00
COc1ccc(-c2ccccc2)c(C(=O)N(Cc2ccccc2F)C2Cc3ccccc3C2)c1 [compound 108, N-(indan-2-yl)-N-(2-fluorobenzyl)-4-methoxy-1,1′-biphenyl-2-carboxamide]	> 6.00
COc1ccc(-c2ccccc2)c(C(=O)N(Cc2cccc(F)c2)C2Cc3ccccc3C2)c1 [compound 109, N-(indan-2-yl)-N-(3-fluorobenzyl)-4-methoxy-1,1′-biphenyl-2-carboxamide]	> 6.00
COc1ccc(-c2ccccc2)c(C(=O)N(Cc2ccc(F)cc2)C2Cc3ccccc3C2)c1 [compound 110, N-(indan-2-yl)-N-(4-fluorobenzyl)-4-methoxy-1,1′-biphenyl-2-carboxamide]	> 6.00
COc1ccc(-c2ccccc2)c(C(=O)N(Cc2ccc(F)c(F)c2)C2Cc3ccccc3C2)c1 [compound 111, N-(3,4-difluorobenzyl)-N-(indan-2-yl)-4-methoxy-1,1′-biphenyl-2-carboxamide]	> 6.00
O=C(c1c(F)cccc1-c1ccccc1)N(Cc1ccccc1)C1Cc2ccccc2C1 [compound 112, N-benzyl-N-(indan-2-yl)-3-fluoro-1,1′-biphenyl-2-carboxamide]	> 6.00
Cc1cccc(-c2ccccc2)c1C(=O)N(Cc1ccccc1)C1Cc2ccccc2C1 [compound 113, N-benzyl-N-(indan-2-yl)-3-methyl-1,1′-biphenyl-2-carboxamide]	> 6.00
Cc1ccc(-c2cccc(F)c2C(=O)N(Cc2ccccc2)C2Cc3ccccc3C2)s1 [compound 114, N-benzyl-N-(indan-2-yl)-2-fluoro-6-(5-methylthien-2-yl)benzamide]	> 6.00
Cc1ccc(-c2cccc(C)c2C(=O)N(Cc2ccccc2)C2Cc3ccccc3C2)s1 [compound 115, N-benzyl-N-(indan-2-yl)-2-methyl-6-(5-methylthien-2-yl)benzamide]	> 6.00
Cc1ccc(-c2ccccc2)c(C(=O)N(Cc2ccccc2)C2Cc3ccccc3C2)c1 [compound 116, N-benzyl-N-(indan-2-yl)-4-methyl-1,1′-biphenyl-2-carboxamide]	> 6.00
O=C(c1cc(Cl)ccc1-c1ccccc1)N(Cc1ccccc1)C1Cc2ccccc2C1 [compound 117, N-benzyl-4-chloro-N-(indan-2-yl)-1,1′-biphenyl-2-carboxamide]	> 6.00
Cc1ccc(-c2ccsc2)c(C(=O)N(Cc2ccccc2)C2Cc3ccccc3C2)c1 [compound 118, N-benzyl-N-(indan-2-yl)-5-methyl-2-thien-3-ylbenzamide]	> 6.00
O=C(c1cc(Cl)ccc1-c1ccsc1)N(Cc1ccccc1)C1Cc2ccccc2C1 [compound 119, N-benzyl-5-chloro-N-(indan-2-yl)-2-thien-3-ylbenzamide]	> 6.00
Cc1ccccc1CN(C(=O)c1c(C)cccc1-c1ccccc1)C1Cc2ccccc2C1 [compound 120, N-(indan-2-yl)-3-methyl-N-(2-methylbenzyl)-1,1′-biphenyl-2-carboxamide]	> 6.00
Cc1cccc(CN(C(=O)c2c(C)cccc2-c2ccccc2)C2Cc3ccccc3C2)c1 [compound 121, N-(indan-2-yl)-3-methyl-N-(3-methylbenzyl)-1,1′-biphenyl-2-carboxamide]	> 6.00

Compound	pKi
Cc1ccc(CN(C(=O)c2c(C)cccc2-c2ccccc2)C2Cc3ccccc3C2)cc1 [compound 122, N-(indan-2-yl)-3-methyl-N-(4-methylbenzyl)-1,1′-biphenyl-2-carboxamide]	> 6.00
Cc1cccc(-c2ccccc2)c1C(=O)N(Cc1ccccc1F)C1Cc2ccccc2C1 [compound 123, N-(indan-2-yl)-N-(2-fluorobenzyl)-3-methyl-1,1′-biphenyl-2-carboxamide]	> 6.00
Cc1cccc(-c2ccccc2)c1C(=O)N(Cc1cccc(F)c1)C1Cc2ccccc2C1 [compound 124, N-(indan-2-yl)-N-(3-fluorobenzyl)-3-methyl-1,1′-biphenyl-2-carboxamide]	> 6.00
Cc1cccc(-c2ccccc2)c1C(=O)N(Cc1ccc(F)cc1)C1Cc2ccccc2C1 [compound 125, N-(indan-2-yl)-N-(4-fluorobenzyl)-3-methyl-1,1′-biphenyl-2-carboxamide]	> 6.00
Cc1cccc(-c2ccccc2)c1C(=O)N(Cc1ccc(F)c(F)c1)C1Cc2ccccc2C1 [compound 126, N-(3,4-difluorobenzyl)-N-(indan-2-yl)-3-methyl-1,1′-biphenyl-2-carboxamide]	> 6.00
COc1cccc(CN(C(=O)c2c(C)cccc2-c2ccccc2)C2Cc3ccccc3C2)c1 [compound 127, N-(indan-2-yl)-N-(3-methoxybenzyl)-3-methyl-1,1′-biphenyl-2-carboxamide]	> 6.00
COc1ccc(CN(C(=O)c2c(C)cccc2-c2ccccc2)C2Cc3ccccc3C2)cc1 [compound 128, N-(indan-2-yl)-N-(4-methoxybenzyl)-3-methyl-1,1′-biphenyl-2-carboxamide]	> 6.00
Cc1cccc(-c2ccccc2)c1C(=O)N(Cc1ccc2c(c1)OCO2)C1Cc2ccccc2C1 [compound 129, N-(1,3-benzodioxol-5-ylmethyl)-N-(indan-2-yl)-3-methyl-1,1′-biphenyl-2-carboxamide]	> 6.00
Cc1cccc(-c2ccccc2)c1C(=O)N(CCc1ccccc1)C1Cc2ccccc2C1 [compound 130, N-(indan-2-yl)-3-methyl-N-(2-phenylethyl)-1,1′-biphenyl-2-carboxamide]	> 6.00
Cc1ccccc1CN(C(=O)c1cc(Cl)ccc1-c1ccccc1)C1Cc2ccccc2C1 [compound 131, 4-chloro-N-(indan-2-yl)-N-(2-methylbenzyl)-1,1′-biphenyl-2-carboxamide]	> 6.00
Cc1cccc(CN(C(=O)c2cc(Cl)ccc2-c2ccccc2)C2Cc3ccccc3C2)c1 [compound 132, 4-chloro-N-(indan-2-yl)-N-(3-methylbenzyl)-1,1′-biphenyl-2-carboxamide]	> 6.00
O=C(c1cc(Cl)ccc1-c1ccccc1)N(Cc1ccccc1F)C1Cc2ccccc2C1 [compound 134, 4-chloro-N-(indan-2-yl)-N-(2-fluorobenzyl)-1,1′-biphenyl-2-carboxamide]	> 6.00
O=C(c1cc(Cl)ccc1-c1ccccc1)N(Cc1cccc(F)c1)C1Cc2ccccc2C1 [compound 135, 4-chloro-N-(indan-2-yl)-N-(3-fluorobenzyl)-1,1′-biphenyl-2-carboxamide]	> 6.00
O=C(c1cc(Cl)ccc1-c1ccccc1)N(Cc1ccc(F)cc1)C1Cc2ccccc2C1 [compound 136, 4-chloro-N-(indan-2-yl)-N-(4-fluorobenzyl)-1,1′-biphenyl-2-carboxamide]	> 6.00
O=C(c1cc(Cl)ccc1-c1ccccc1)N(Cc1ccc(F)c(F)c1)C1Cc2ccccc2C1 [compound 137, 4-chloro-N-(3,4-difluorobenzyl)-N-(indan-2-yl)-1,1′-biphenyl-2-carboxamide]	> 6.00
COc1ccc(CN(C(=O)c2cc(Cl)ccc2-c2ccccc2)C2Cc3ccccc3C2)cc1 [compound 138, 4-chloro-N-(indan-2-yl)-N-(4-methoxybenzyl)-1,1′-biphenyl-2-carboxamide]	> 6.00
O=C(c1cc(Cl)ccc1-c1ccccc1)N(Cc1ccc2c(c1)OCO2)C1Cc2ccccc2C1 [compound 139, N-(1,3-benzodioxol-5-ylmethyl)-4-chloro-N-(indan-2-yl)-1,1′-biphenyl-2-carboxamide]	> 6.00
COc1cccc(CN(C(=O)c2cc(Cl)ccc2-c2ccccc2)C2Cc3ccccc3C2)c1 [compound 140, 4-chloro-N-(indan-2-yl)-N-(3-methoxybenzyl)-1,1′-biphenyl-2-carboxamide]	> 6.00
